In patent US20230278972A1, “SUBSTITUTED HALOALKYL SULFONANILIDE HERBICIDES” (FMC Corporation, priority 2020, published 2023):

Key:
Type in all cases: in vivo
[1] = test system: Foxtail, Giant (giant foxtail, Setaria faberi); assay: Test A1 preemergence, Foxtail, Giant
Summary of the method: (§1)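 Both timings started from seed in a loam-sand blend. Preemergence pots got a directed soil application immediately; postemergence pots were sprayed when seedlings had one or two leaves and stood 2–10 cm. Each compound was prepared in a non-phytotoxic solvent plus surfactant.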

[2] = test system: blackgrass (Alopecurus myosuroides); assay: Test A1 preemergence, blackgrass
Summary of the method: as §1

[3] = test system: ducksalad (Heteranthera limosa); assay: Test B1 flooded paddy test, ducksalad; conditions: 250 g ai/ha, Flood, applied to paddy water, 2-leaf stage, visually evaluated after 10 to 14 days
Text: (§2) A dash (-) response means no test result.

[4] = test system: barnyardgrass (Echinochloa crus-galli); assay: Test B1 flooded paddy test, barnyardgrass; conditions: 250 g ai/ha, Flood, applied to paddy water, 2-leaf stage, visually evaluated after 10 to 14 days
Text: as §2

[5] = test system: blackgrass (Alopecurus myosuroides); assay: Test A1 postemergence, blackgrass; conditions: Postemergence, 0 to 100 scale (0 no effect, 100 complete control)
Summary of the method: as §1

[6] = test system: goosegrass (Eleusine indica); assay: Test A1 postemergence, goosegrass; conditions: Postemergence
Summary of the method: as §1

corn (Zea mays) [7] = assay: Test A1 preemergence, corn
Summary of the method: (§3)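 Postemergence species (ragweed, Palmer pigweed, wild oat) were sprayed at one- to two-leaf stage, 2 to 10 cm tall. Corn was treated preemergence by directed soil spray. Both used a loam soil/sand blend and compounds in a non-phytotoxic solvent mixture with surfactant.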

[8] = test system: ragweed (common ragweed, Ambrosia artemisiifolia); assay: Test A1 postemergence, ragweed; conditions: Postemergence
Summary of the method: as §3

[9] = test system: Pigweed, Palmer (palmer amaranth, palmer pigweed, Amaranthus palmeri); assay: Test A1 preemergence, Pigweed, Palmer
Summary of the method: as §1

corn (Zea mays) [10] = assay: Test A1 postemergence, corn; conditions: Postemergence
Summary of the method: as §1

[11] = test system: ragweed (common ragweed, Ambrosia artemisiifolia); assay: Test A1 preemergence, ragweed
Summary of the method: as §1

[12] = test system: goosegrass (Eleusine indica); assay: Test A1 preemergence, goosegrass
Summary of the method: as §1

[13] = test system: Oat, Wild (wild oat, Avena fatua); assay: Test A1 postemergence, Oat, Wild; conditions: Postemergence
Summary of the method: as §3

[14] = test system: wheat (Triticum aestivum); assay: Test A1 postemergence, wheat; conditions: Postemergence
Summary of the method: as §1

[15] = test system: horseweed (Erigeron canadensis); assay: Test A1 postemergence, horseweed; conditions: Postemergence
Summary of the method: as §1

[16] = test system: Oat, Wild (wild oat, Avena fatua); assay: Test A1 preemergence, Oat, Wild
Summary of the method: as §1

kochia (Bassia scoparia) [17] = assay: Test A1 postemergence, kochia; conditions: Postemergence
Summary of the method: as §1

soybean (Glycine max) [18] = assay: Test A1 postemergence, soybean; conditions: Postemergence
Summary of the method: as §1

[19] = test system: galium (catchweed bedstraw, Galium aparine); assay: Test A1 postemergence, galium; conditions: Postemergence
Summary of the method: as §1

[20] = test system: Ryegrass, Italian (Italian ryegrass, Lolium multiflorum); assay: Test A1 preemergence, Ryegrass, Italian
Summary of the method: as §1

[21] = test system: wheat (Triticum aestivum); assay: Test A1 preemergence, wheat
Summary of the method: as §1

[22] = test system: Pigweed, Palmer (palmer amaranth, palmer pigweed, Amaranthus palmeri); assay: Test A1 postemergence, Pigweed, Palmer; conditions: Postemergence
Summary of the method: as §3

[23] = test system: Foxtail, Giant (giant foxtail, Setaria faberi); assay: Test A1 postemergence, Foxtail, Giant; conditions: Postemergence
Summary of the method: as §1

[24] = test system: Ryegrass, Italian (Italian ryegrass, Lolium multiflorum); assay: Test A1 postemergence, Ryegrass, Italian; conditions: Postemergence
Summary of the method: as §1

rice (Oryza sativa) = assay: Test B1 flooded paddy test, rice; conditions: 250 g ai/ha, Flood, applied to paddy water, 2-leaf stage, visually evaluated after 10 to 14 days
Text: as §2

soybean (Glycine max) [25] = assay: Test A1 preemergence, soybean
Summary of the method: as §1

kochia (Bassia scoparia) [26] = assay: Test A1 preemergence, kochia
Summary of the method: as §1

[27] = 31 g ai/ha, 0 to 100 scale (0 no effect, 100 complete control)
[28] = 125 g ai/ha, 0 to 100 scale, 0 no effect, 100 complete control
[29] = 31 g ai/ha, 0 to 100 scale (0 no effect, 100 complete control), 10 days

Cc1cc(C)c(N(COC(=O)C(C)(C)C)S(=O)(=O)C(F)(F)F)cc1C(=O)N1CCC(F)(F)CC1 [Compound 350]
Plant response rating, Foxtail, Giant [1, 27]: 0 | Plant response rating, Foxtail, Giant [1, 28]: 80 | Plant response rating, Blackgrass [2, 27]: 0 | Plant response rating, Blackgrass [2, 28]: 0 | Plant response rating, Ducksalad (0 to 100 scale, 0 is no effect, 100 is complete control) [3]: 80 | Plant response rating, Barnyardgrass (0 to 100 scale, 0 is no effect, 100 is complete control) [4]: 90 | Plant response rating, Blackgrass ([5]; 31 g ai/ha, 10 days): 0 | Plant response rating, Blackgrass ([5]; 125 g ai/ha): 0 | Plant response rating, Goosegrass [6, 29]: 10 | Plant response rating, Goosegrass ([6]; 125 g ai/ha, 0 to 100 scale): 80 | Plant response rating, Corn (corn (Zea mays) [7]; [27]): 0 | Plant response rating, Corn (corn (Zea mays) [7]; [28]): 0 | Plant response rating, Ragweed [8, 29]: 80 | Plant response rating, Ragweed ([8]; 125 g ai/ha, 0 to 100 scale): 90 | Plant response rating, Pigweed, Palmer [9, 27]: 20 | Plant response rating, Pigweed, Palmer [9, 28]: 60 | Plant response rating, Corn (corn (Zea mays) [10]; [29]): 0 | Plant response rating, Corn (corn (Zea mays) [10]; 125 g ai/ha, 0 to 100 scale): 0 | Plant response rating, Ragweed [11, 27]: 20 | Plant response rating, Ragweed [11, 28]: 80 | Plant response rating, Goosegrass [12, 27]: 30 | Plant response rating, Goosegrass [12, 28]: 90 | Plant response rating, Oat, Wild [13, 29]: 0 | Plant response rating, Oat, Wild ([13]; 125 g ai/ha, 0 to 100 scale): 0 | Plant response rating, Wheat [14, 29]: 0 | Plant response rating, Wheat ([14]; 125 g ai/ha, 0 to 100 scale): 10 | Plant response rating, Horseweed [15, 29]: 90 | Plant response rating, Horseweed ([15]; 125 g ai/ha, 0 to 100 scale): 100 | Plant response rating, Oat, Wild [16, 27]: 0 | Plant response rating, Oat, Wild [16, 28]: 10 | Plant response rating, Kochia (kochia (Bassia scoparia) [17]; [29]): 0 | Plant response rating, Kochia (kochia (Bassia scoparia) [17]; 125 g ai/ha, 0 to 100 scale): 60 | Plant response rating, Soybean (soybean (Glycine max) [18]; [29]): 10 | Plant response rating, Soybean (soybean (Glycine max) [18]; 125 g ai/ha, 0 to 100 scale): 40 | Plant response rating, Galium [19, 29]: 70 | Plant response rating, Galium ([19]; 125 g ai/ha, 0 to 100 scale): 90 | Plant response rating, Ryegrass, Italian [20, 27]: 30 | Plant response rating, Ryegrass, Italian [20, 28]: 30 | Plant response rating, Wheat [21, 27]: 0 | Plant response rating, Wheat [21, 28]: 10 | Plant response rating, Pigweed, Palmer [22, 29]: 30 | Plant response rating, Pigweed, Palmer ([22]; 125 g ai/ha, 0 to 100 scale): 40 | Plant response rating, Foxtail, Giant [23, 29]: 10 | Plant response rating, Foxtail, Giant ([23]; 125 g ai/ha, 0 to 100 scale): 30 | Plant response rating, Ryegrass, Italian [24, 29]: 30 | Plant response rating, Ryegrass, Italian ([24]; 125 g ai/ha, 0 to 100 scale): 30 | Plant response rating, Rice (0 to 100 scale, 0 is no effect, 100 is complete control) (rice (Oryza sativa)): 35 | Plant response rating, Soybean (soybean (Glycine max) [25]; [27]): 0 | Plant response rating, Soybean (soybean (Glycine max) [25]; [28]): 0 | Plant response rating, Kochia (kochia (Bassia scoparia) [26]; [27]): 20 | Plant response rating, Kochia (kochia (Bassia scoparia) [26]; [28]): 70

Cc1c(NS(=O)(=O)C(F)(F)F)cc(C(=O)N2CCC(Cl)CC2)c(C)c1C [Compound 356]
Plant response rating, Foxtail, Giant [1, 27]: 90 | Plant response rating, Foxtail, Giant [1, 28]: 100 | Plant response rating, Blackgrass [2, 27]: 0 | Plant response rating, Blackgrass [2, 28]: 10 | Plant response rating, Ducksalad (0 to 100 scale, 0 is no effect, 100 is complete control) [3]: 45 | Plant response rating, Barnyardgrass (0 to 100 scale, 0 is no effect, 100 is complete control) [4]: 45 | Plant response rating, Blackgrass ([5]; 31 g ai/ha, 10 days): 0 | Plant response rating, Blackgrass ([5]; 125 g ai/ha): 0 | Plant response rating, Goosegrass [6, 29]: 0 | Plant response rating, Goosegrass ([6]; 125 g ai/ha, 0 to 100 scale): 70 | Plant response rating, Corn (corn (Zea mays) [7]; [27]): 0 | Plant response rating, Corn (corn (Zea mays) [7]; [28]): 90 | Plant response rating, Ragweed [8, 29]: 70 | Plant response rating, Ragweed ([8]; 125 g ai/ha, 0 to 100 scale): 80 | Plant response rating, Pigweed, Palmer [9, 27]: 50 | Plant response rating, Pigweed, Palmer [9, 28]: 100 | Plant response rating, Corn (corn (Zea mays) [10]; [29]): 0 | Plant response rating, Corn (corn (Zea mays) [10]; 125 g ai/ha, 0 to 100 scale): 40 | Plant response rating, Ragweed [11, 27]: 0 | Plant response rating, Ragweed [11, 28]: 0 | Plant response rating, Goosegrass [12, 27]: 90 | Plant response rating, Goosegrass [12, 28]: 90 | Plant response rating, Oat, Wild [13, 29]: 0 | Plant response rating, Oat, Wild ([13]; 125 g ai/ha, 0 to 100 scale): 10 | Plant response rating, Wheat [14, 29]: 0 | Plant response rating, Wheat ([14]; 125 g ai/ha, 0 to 100 scale): 30 | Plant response rating, Horseweed [15, 29]: 50 | Plant response rating, Horseweed ([15]; 125 g ai/ha, 0 to 100 scale): 80 | Plant response rating, Oat, Wild [16, 27]: 0 | Plant response rating, Oat, Wild [16, 28]: 20 | Plant response rating, Kochia (kochia (Bassia scoparia) [17]; [29]): 10 | Plant response rating, Kochia (kochia (Bassia scoparia) [17]; 125 g ai/ha, 0 to 100 scale): 50 | Plant response rating, Soybean (soybean (Glycine max) [18]; [29]): 50 | Plant response rating, Soybean (soybean (Glycine max) [18]; 125 g ai/ha, 0 to 100 scale): 80 | Plant response rating, Galium [19, 29]: 70 | Plant response rating, Galium ([19]; 125 g ai/ha, 0 to 100 scale): 100 | Plant response rating, Ryegrass, Italian [20, 27]: 0 | Plant response rating, Ryegrass, Italian [20, 28]: 40 | Plant response rating, Wheat [21, 27]: 0 | Plant response rating, Wheat [21, 28]: 30 | Plant response rating, Pigweed, Palmer [22, 29]: 0 | Plant response rating, Pigweed, Palmer ([22]; 125 g ai/ha, 0 to 100 scale): 10 | Plant response rating, Foxtail, Giant [23, 29]: 10 | Plant response rating, Foxtail, Giant ([23]; 125 g ai/ha, 0 to 100 scale): 40 | Plant response rating, Ryegrass, Italian [24, 29]: 20 | Plant response rating, Ryegrass, Italian ([24]; 125 g ai/ha, 0 to 100 scale): 30 | Plant response rating, Rice (0 to 100 scale, 0 is no effect, 100 is complete control) (rice (Oryza sativa)): 0 | Plant response rating, Soybean (soybean (Glycine max) [25]; [27]): 0 | Plant response rating, Soybean (soybean (Glycine max) [25]; [28]): 80 | Plant response rating, Kochia (kochia (Bassia scoparia) [26]; [27]): 0 | Plant response rating, Kochia (kochia (Bassia scoparia) [26]; [28]): 30
